{
  "source": "the Deep4Chem optical property database",
  "experiment": "photoluminescence quantum yield (fraction); solvent given as SMILES",
  "data": [
    {"compound": "CCCCCCN1C(=O)c2cccc3cc(/N=C\\c4cn(C)c5ccccc45)cc(c23)C1=O", "values": [
      {"measurement": "photoluminescence quantum yield", "setting": "in ClC(Cl)Cl", "result": 0.03}
    ]},
    {"compound": "C[C@]12C(=O)NC(=O)N([C@H]3CC(O)[C@@H](CO)O3)[C@H]1[C@H]1Oc3cc4oc(=O)ccc4cc3[C@H]12", "note": "(some centres not stated)", "values": [
      {"measurement": "photoluminescence quantum yield", "setting": "in CC(C)O", "result": 0.003},
      {"measurement": "photoluminescence quantum yield", "setting": "in CCO", "result": 0.005},
      {"measurement": "photoluminescence quantum yield", "setting": "in CCOCC", "result": 0.001},
      {"measurement": "photoluminescence quantum yield", "setting": "in CO", "result": 0.007},
      {"measurement": "photoluminescence quantum yield", "setting": "in O", "result": 0.044}
    ]},
    {"compound": "F[B-]1(F)n2cccc2C(c2c3ccccc3c(-c3ccccc3)c3ccccc23)=C2C=CC=[N+]21", "values": [
      {"measurement": "photoluminescence quantum yield", "setting": "in CC#N", "result": 0.001},
      {"measurement": "photoluminescence quantum yield", "setting": "in CCO", "result": 0.002},
      {"measurement": "photoluminescence quantum yield", "setting": "in CN(C)C=O", "result": 0.001},
      {"measurement": "photoluminescence quantum yield", "setting": "in Cc1ccccc1", "result": 0.007},
      {"measurement": "photoluminescence quantum yield", "setting": "in ClCCl", "result": 0.002}
    ]},
    {"compound": "c1ccc(N(c2ccccc2)c2ccc(-c3ncc(-c4ccc(-c5cnc(-c6ccc(N(c7ccccc7)c7ccccc7)cc6)s5)s4)s3)cc2)cc1", "values": [
      {"measurement": "photoluminescence quantum yield", "setting": "in CO", "result": 0.16}
    ]},
    {"compound": "CCCCCCCCCCCCOc1ccc(C#CC(C#Cc2ccc(OCCCCCCCCCCCC)cc2)=Cc2cc(C=C(C#Cc3ccc(OCCCCCCCCCCCC)cc3)C#Cc3ccc(OCCCCCCCCCCCC)cc3)cc(C=C(C#Cc3ccc(OCCCCCCCCCCCC)cc3)C#Cc3ccc(OCCCCCCCCCCCC)cc3)c2)cc1", "values": [
      {"measurement": "photoluminescence quantum yield", "setting": "in CCOC(C)=O", "result": 0.35}
    ]},
    {"compound": "Ic1ccc(C2=C3C=CC4=[N+]3[B-]3(Oc5ccccc54)Oc4ccccc4-c4ccc2n43)cc1", "note": "(configuration not stated)", "values": [
      {"measurement": "photoluminescence quantum yield", "setting": "in ClC(Cl)Cl", "result": 0.41}
    ]},
    {"compound": "O=c1cc2cc(O)c3cc(O)cc4ccc(o1)c2c43", "values": [
      {"measurement": "photoluminescence quantum yield", "setting": "in CC1CCCO1", "result": 0.36}
    ]},
    {"compound": "CCCCn1c(-c2ccc(-c3nnc(-c4ccc(-c5nc6ccccc6n5CCCC)cc4)o3)cc2)nc2ccccc21", "values": [
      {"measurement": "photoluminescence quantum yield", "setting": "in ClCCl", "result": 0.63}
    ]},
    {"compound": "CC1(C)c2ccccc2N(c2ccc3c(c2)C2(c4cc(N5c6ccccc6C(C)(C)c6ccccc65)ccc4-3)c3ccccc3S(=O)(=O)c3ccccc32)c2ccccc21", "values": [
      {"measurement": "photoluminescence quantum yield", "setting": "in c1ccc2c(c1)c1ccccc1n2-c1ccc(N(c2ccc(-n3c4ccccc4c4ccccc43)cc2)c2ccc(-n3c4ccccc4c4ccccc43)cc2)cc1", "result": 0.41}
    ]},
    {"compound": "CN(C)c1ccc(C2=[N+]3C(=Nc4c5ccccc5c(-c5ccc(N(C)C)cc5)n4[B-]3(F)F)c3ccccc32)cc1", "values": [
      {"measurement": "photoluminescence quantum yield", "setting": "in ClCCl", "result": 0.01}
    ]},
    {"compound": "CCOC(=O)c1cc(C(=O)OCC)c2c(C)ccc(OC(=O)OC(C)(C)C)c2n1", "values": [
      {"measurement": "photoluminescence quantum yield", "setting": "in CCO", "result": 0.22}
    ]},
    {"compound": "Fc1ccc(N(c2ccccc2)c2ccc3ccc4c(N(c5ccccc5)c5ccc(F)cc5)ccc5ccc2c3c54)cc1", "values": [
      {"measurement": "photoluminescence quantum yield", "setting": "in ClCCl", "result": 0.8}
    ]},
    {"compound": "O=C1C2=C(O[B-](F)(F)[n+]3c2ccc2ccccc23)c2ccc(N3CCOCC3)c3cccc1c23", "values": [
      {"measurement": "photoluminescence quantum yield", "setting": "in C1CCOC1", "result": 0.55},
      {"measurement": "photoluminescence quantum yield", "setting": "in CC#N", "result": 0.49},
      {"measurement": "photoluminescence quantum yield", "setting": "in CCO", "result": 0.46},
      {"measurement": "photoluminescence quantum yield", "setting": "in CO", "result": 0.45},
      {"measurement": "photoluminescence quantum yield", "setting": "in ClCCl", "result": 0.53}
    ]},
    {"compound": "O=c1c2ccccc2[nH]c2ccccc12", "values": [
      {"measurement": "photoluminescence quantum yield", "setting": "in CS(C)=O", "result": 0.75}
    ]},
    {"compound": "CC[Si](CC)(CC)c1cc2ccc3cccc4ccc(c1C(=O)NC(C)(C)C)c2c34", "values": [
      {"measurement": "photoluminescence quantum yield", "setting": "in ClC(Cl)Cl", "result": 0.162}
    ]},
    {"compound": "COC(=O)C(NC(=O)CCNc1cccc2ccccc12)c1ccccc1", "note": "(configuration not stated)", "values": [
      {"measurement": "photoluminescence quantum yield", "setting": "in CCO", "result": 0.55}
    ]},
    {"compound": "COc1ccc(-c2c3cc4cc(C)sc4cc3c(-c3ccc(OC)cc3)c3cc4cc(C)sc4cc23)cc1", "values": [
      {"measurement": "photoluminescence quantum yield", "setting": "in ClCCl", "result": 0.61}
    ]},
    {"compound": "FC(F)(F)C(F)(F)C(F)(F)C(F)(F)C(F)(F)C(F)(F)C(F)(F)C(F)(F)CCOc1nnc(Cl)nn1", "values": [
      {"measurement": "photoluminescence quantum yield", "setting": "in ClCCl", "result": 0.44},
      {"measurement": "photoluminescence quantum yield", "setting": "in OCC(F)(F)F", "result": 0.28}
    ]},
    {"compound": "CC1(C)CC(=O)C2=C(C1)Oc1ccc3cc(O)ccc3c1C2c1ccccn1", "note": "(configuration not stated)", "values": [
      {"measurement": "photoluminescence quantum yield", "setting": "in C1CCOC1", "result": 0.062},
      {"measurement": "photoluminescence quantum yield", "setting": "in C1COCCO1", "result": 0.028},
      {"measurement": "photoluminescence quantum yield", "setting": "in CC#N", "result": 0.082},
      {"measurement": "photoluminescence quantum yield", "setting": "in CCCCCCC", "result": 0.05},
      {"measurement": "photoluminescence quantum yield", "setting": "in CCO", "result": 0.067},
      {"measurement": "photoluminescence quantum yield", "setting": "in CO", "result": 0.066},
      {"measurement": "photoluminescence quantum yield", "setting": "in O", "result": 0.38}
    ]},
    {"compound": "CC[Si](CC)(CC)Oc1cccc(O[Si](CC)(CC)CC)c1-c1c2ccccc2c(-c2c(O[Si](CC)(CC)CC)cccc2O[Si](CC)(CC)CC)c2ccccc12", "values": [
      {"measurement": "photoluminescence quantum yield", "setting": "in C1CCCCC1", "result": 0.96}
    ]},
    {"compound": "C(=C\\c1cccc2ccccc12)/c1ncc(-c2ccccc2)o1", "values": [
      {"measurement": "photoluminescence quantum yield", "setting": "in ClCCl", "result": 0.32}
    ]},
    {"compound": "CC1(C)c2ccccc2N(c2ccc(-c3cnc(C#N)nc3)cc2)c2ccccc21", "values": [
      {"measurement": "photoluminescence quantum yield", "setting": "in Cc1ccccc1", "result": 0.311},
      {"measurement": "photoluminescence quantum yield", "setting": "in N#Cc1ccc2c(c1)c1ccccc1n2-c1cccc(-n2c3ccccc3c3ccccc32)c1", "result": 1}
    ]},
    {"compound": "COc1ccc(/C=C/C2=C3CCc4ccccc4C3=[O+][B-](F)(F)O2)cc1", "values": [
      {"measurement": "photoluminescence quantum yield", "setting": "in ClCCl", "result": 0.04}
    ]},
    {"compound": "CC(NC(=O)OC(C)(C)C)C(=O)OCc1ccc2c3cccc4cccc(c5cccc1c52)c43", "note": "(configuration not stated)", "values": [
      {"measurement": "photoluminescence quantum yield", "setting": "in CCO", "result": 0.88}
    ]},
    {"compound": "Brc1ccc2cc3c4ccccc4nc(-c4ccco4)c3n2c1", "values": [
      {"measurement": "photoluminescence quantum yield", "setting": "in CS(C)=O", "result": 0.03}
    ]},
    {"compound": "CN1CCc2cc(C3=Cc4cccc[n+]4[B-](F)(F)O3)ccc21", "values": [
      {"measurement": "photoluminescence quantum yield", "setting": "in ClC(Cl)Cl", "result": 0.639}
    ]},
    {"compound": "CC(=O)OCCOCCN1C(=O)c2cc(NCCOCCO)c3c4c(cc(NCCOCCO)c(c24)C1=O)C(=O)N(CCOCCOC(C)=O)C3=O", "values": [
      {"measurement": "photoluminescence quantum yield", "setting": "in CO", "result": 0.37},
      {"measurement": "photoluminescence quantum yield", "setting": "in ClC(Cl)Cl", "result": 0.59},
      {"measurement": "photoluminescence quantum yield", "setting": "in O", "result": 0.03}
    ]},
    {"compound": "CCCCc1ccc(-n2c3c(c4c2c2c(n4-c4ccc(CCCC)cc4)-c4ccc(C(F)(F)F)cc4NB2c2ccccc2)B(c2ccccc2)Nc2cc(C(F)(F)F)ccc2-3)cc1", "values": [
      {"measurement": "photoluminescence quantum yield", "setting": "in Cc1ccccc1", "result": 0.78}
    ]},
    {"compound": "COc1ccc(C(=O)c2c(C)c3ccc4cccc5c6cccc7ccc2c(c76)c3c45)cc1", "values": [
      {"measurement": "photoluminescence quantum yield", "setting": "in ClCCl", "result": 0.018}
    ]},
    {"compound": "C#Cc1ccc2cc3c(C)cc(=O)oc3cc2c1", "values": [
      {"measurement": "photoluminescence quantum yield", "setting": "in CCO", "result": 0.01}
    ]}
  ]
}
